Experimental data from PMC5483439, “The Effect of Pungent and Tingling Compounds from Piper nigrum L. on Background K^+ Currents” (Frontiers in Pharmacology, 2017).

Test system: background current of mouse trigeminal neurons
Test: Whole-cell patch clamp on cultured mouse trigeminal neurons
Type: cell-based
Conditions: 100 μM
Experimental: Trigeminal ganglia neurons were isolated from Swiss CD-1 mice (Charles River Laboratories, Sulzfeld, Germany). All experiments involving animals were carried out in accordance with the European Union Community Council’s guidelines and approved by the competent state office of the Federal Land of Northrhine Westphalia (file number 87-51.04.2010.A180). At postnatal day 2–5, the mice were sacrificed by decapitation. The brain was removed, and both trigeminal ganglia were excised. The ganglia were washed in PBS+/+ (Invitrogen, Karlsruhe, Germany) and collected in Leibovitz Medium (L15, Invitrogen) on ice. The ganglia were transferred to Dulbecco’s modified essential medium (DMEM) containing 0.025% collagenase (type IA, Sigma–Aldrich). The minced ganglia were incubated for 45 min in a humidified atmosphere (37°C, 95% humidity, 6% CO2) before trituration. The cell suspension was centrifuged at 1000 rpm for 4 min at room temperature and the pellet was resuspended in F-12 medium (Invitrogen; 31331-D-MEM/F-12, GlutaMax^TM) supplemented with 10% fetal bovine serum (FBS^TM; Invitrogen), 200 U/mL penicillin and 200 U/mL streptomycin. The cell suspension (50 μL) was then plated on poly L-lysine (0.01%) coated glass coverslips (30 mm, Sarstedt, Nümbrecht, Germany), placed in cell culture dishes (35 mm) and kept in a humidified atmosphere (37°C, 95% humidity, 6% CO2) for 1 h. Subsequently, F-12 medium (2 mL) supplemented with FBS (10%), 200 U/mL penicillin and 200 U/mL streptomycin was added to each dish. The cells were kept in an incubator (37°C, 95% humidity, 6% CO2) until use.
The recordings were performed using the whole-cell configuration of the patch-clamp technique. The cells were maintained in an extracellular recording solution containing 140 mM NaCl, 5 mM KCl, 2 mM MgCl2, 2 mM CaCl2, 10 mM HEPES and 10 mM glucose, pH 7.4. The Ca^2+ and Na^+- free extracellular solution contained: 140 mM NMDG-Cl, 5 mM KCl, 2 mM MgCl2, 5 mM EGTA, 10 mM HEPES, pH 7.4. The patch electrodes were pulled from borosilicate glass (1.2 mm OD × 1.17 mm ID; Harvard apparatus, Edenbridge, Kent, United Kingdom) and fire polished to 2.5–4 MΩ tip resistance using a horizontal pipette puller (Zeitz Instruments, Munich, Germany) to obtain a patch of approximately 1–2 μm diameter. The pipette solution contained 140 mM KCl, 1 mM MgCl2, and 10 mM HEPES, pH 7.4. All recordings were performed at room temperature with an EPC7 amplifier (List-Medical Electronic, Darmstadt, Germany). The capacity and serial resistance were adjusted manually. The substances were applied via a custom-made manifold superfusion device. […] The data were acquired using Pulse software (HEKA, Lambrecht, Germany) and analyzed with PulseFit (HEKA, Lambrecht, Germany). Unless otherwise stated, the data are expressed as the mean ± SEM. […]

For O=C(/C=C/C=C/c1ccc2c(c1)OCO2)N1CCCCC1 [1a, piperine], the “membrane potential change in current clamp” value (Na+/Ca2+-free conditions) was “mild depolarization”, the “current inhibition when applied under acidic pH” value (Na+/Ca2+-free solution, with XE-991, acidic pH, p = 0,00012) was “significantly decreased” and the “decrease in the background current” value (physiological extracellular solution, 13 of 38 neurons, <30 μm diameter) was 19.5 ± 1.8%.
